Measured values taken from EP2519243B1, “COMPOSITIONS AND METHODS FOR TREATING HEPATITIS B VIRUS INFECTION” (priority 2009, dated 2011).
Read-outs that look alike come from different tables or passages of the source.

What was measured:
[1] = cited from earlier work
[2] = tested on: HBV; details: cited from earlier work; for cumulative rate of resistance: in 5 years
[3] = tested on: HBV; test: Emax modeling of predicted day 29 HBV DNA reduction versus lamivudine dose; design: species or system human; details: Emax model estimate (standard error); Emax fixed to 4; day 29 predicted data
Excerpt: The predicted HBV DNA reduction data on day 29 were used for Emax modeling analyses for the purpose of defining optimal doses of lamivudine.
An Emax model in the form of E = Emax *ED50^h /(D^h+ED50^h) [formula] where E and Emax are the viral response with dose D and maximum viral response respectively; ED50 is the dose resulting in 50% of viral response; h is the Hill parameter. The maximum reduction of HBV NDA at 4 weeks achievable by a nucleoside/nucleotide antiviral is approximately 4 log10. (Buti et al. J. Hepatol. 39: S139-S142, 2003.) Therefore, in the Emax modeling herein, Emax was fixed to 4.
Using these estimates, viral responses at untested doses were predicted and results are illustrated in FIG. 3 and presented in Table 5.

[4] = tested on: HBV; test: Viral dynamic analyses of serum HBV DNA under lamivudine therapy (model fit and simulation); design: species or system human; details: estimate (standard error)
Excerpt: The HBV DNA data used in the unique assessments disclosed herein of HBV viral dynamics under lamivudine therapy were obtained from the previously published lamivudine dose-response curves (FIG. 1). […] Therefore, for the viral dynamic analyses, only data up to day 15 were used.
The digitalized data were converted to percent change from baseline as (Vt-V0)/V0 and further presented as Vt/V0, where V0 and Vt are the HBV DNA data at baseline and at time t after treatment initiation, respectively. The viral dynamic model as illustrated below was fitted to the Vt/V0 vs. time data: Vt /V0 = [(ε*u-a)/(u-a)]*exp(-u*t) + [(1-ε)*u/(u-a)]*exp(-a*t) [formula] where u is the clearance rate constant of free virions; a is the clearance rate constant of infected cells; ε is the inhibition efficacy.
Table 3. Exemplary viral dynamic parameter estimates (standard error) of lamivudine
These analyses are illustrated in FIG. 2.
Table 4. Examples of model predicted HBV DNA reduction from baseline on long10 scale (% change)

[5] = tested on: HBV; details: day 29, 100 mg/day dose; no additional benefits with 300 mg or 600 mg; cited from earlier work

Row | Compound | cumulative rate of nephrotoxicity ([1]; 10 mg per day, 4-5 years, patients with compensated liver disease) | adefovir-associated nephrotoxicity (patients) ([1]; decompensated liver disease and liver transplantation, treatment periods of 39-99 weeks) | cumulative rate of resistance ([2]; HBeAg negative patients) | cumulative rate of resistance ([2]; HBeAg positive patients) | 5-year resistance rate ([2]; monotherapy) | ED50 (dose resulting in 50% of viral response) [3] | e (inhibition efficacy) ([4]; lamivudine 5 mg/day) | e (inhibition efficacy) ([4]; lamivudine 20 mg/day) | e (inhibition efficacy) ([4]; lamivudine 100 mg/day) | e (inhibition efficacy) ([4]; lamivudine 300 mg/day) | e (inhibition efficacy) ([4]; lamivudine 600 mg/day) | maximal observed viral suppression (median, from baseline) [5]
1 | CC(C)(C)C(=O)OCOP(=O)(COCCn1cnc2c(N)ncnc21)OCOC(=O)C(C)(C)C [adefovir dipivoxil, 9-[2-[[bis[(pivaloyloxy)methoxy]-phosphinyl]-methoxy]ethyl]adenine] | 3% | up to 47% | 29% | about 20% | 20-30% | – | – | – | – | – | – | –
2 | Nc1ccn([C@@H]2CS[C@H](CO)O2)c(=O)n1 (relative stereo) [lamivudine, (2R,cis)-4-amino-1-(2-hydroxymethyl-1,3-oxathiolan-5-yl)-(1H)-pyrimidin-2-one] | – | – | – | – | – | 101.5 (29.04) mg | 0.6193 (0.0369) | 0.8186 (0.0374) | 0.8173 (0.0254) | 0.8463 (0.0087) | 0.8673 (0.0248) | ≥ 98%
